Literature values as cited in patent US20060287520A1, “Synthesis of salinosporamide A and analogues thereof” (priority 2005, published 2006).

Key:
20S proteasome = conditions: times more potent than omuralide, same molecular target (20S proteasome)
[1] = read-out: in vitro cytotoxicity IC50; background statement; cell line not given

For `C[C@@]12OC(=O)[C@]1([C@@H](O)[C@@H]1C=CCCC1)NC(=O)[C@@H]2CCCl` [Salinosporamide A], the “potency relative to omuralide (2)” value (20S proteasome) is listed as “approximately 35 times” and the IC50 [1] is listed as about 10 nM.
